Values joined by “and” are separate entries in the source; they are usually repeats but may differ in a detail not shown here. Equal entries are not always repeated.
Columns and labels:
[1] = Pharmacokinetics after 1-min intravenous infusion of tofacitinib to rats; format: in vivo, Sprague-Dawley rats; conditions: for clearance / CL renal / MRT / half-life / Vd: Sprague-Dawley; for clearance / CL renal / MRT / half-life / Vd / AUC: rat; for Dose-normalized AUC: normalized to 10 mg/kg; for half-life: read-out: Terminal half-life; for Vd: read-out: Vss; for AUC: 1-min iv infusion, male Sprague-Dawley rats
Method: The pretreatment and surgical procedures for oral and intravenous administration were similar to those described previously. For oral administration, the rats were fasted overnight with free access to water. The rats were anesthetized with ketamine (200 mg/kg), and their carotid arteries were cannulated using polyethylene tubing (Clay Adams, Parsippany, NJ, USA) for blood sampling. For intravenous administration, the rats were anesthetized with ketamine (200 mg/kg), and their jugular veins and carotid arteries were cannulated for drug administration and blood sampling, respectively. Rats were allowed to recover for 4–5 h after surgical procedures. The rats were not restrained during the experimental period and had free access to water and food.
Blood samples (110–220 μL) were collected via the carotid artery at times 0 (prior to drug administration), 1 (at the end of drug infusion), 5, 15, 30, 45, 60, 90, 120, 180, 240, 360, 480, and 600 min. […] To prevent blood clotting, 0.3 mL of heparinized 0.9% NaCl-injectable solution (20 IU/mL) was immediately injected into the carotid artery after each blood sampling. Urine samples were collected over 24 h; in addition, each metabolic cage was rinsed with 20 mL of distilled water 24 h after drug administration, and the rinses were combined with their corresponding 24-h urine samples. […] At 24-h, each rat was exsanguinated, followed by cervical dislocation. The abdomen of each rat was opened and the entire gastrointestinal tract, including its contents and feces, was removed, transferred to a beaker containing 50 mL methanol, and cut into small pieces using scissors.
Two microliters of hydrocortisone (5 mg/mL) and 40 μL of 20% ammonia solution were added to 100 μL aliquots of biological samples and vortex-mixed for 30 s using a vortex mixer. Each solution was extracted with 1.5 mL of ethyl acetate by centrifugation at 12,000 rpm for 5 min. The organic layer was collected and dried (Dry Thermobath, Eyela, Tokyo, Japan) under a gentle stream of nitrogen gas at 40 °C. The samples were reconstituted in 130 μL of 20% acetonitrile, and 50 μL of resuspended samples were analyzed by HPLC [12].
The mobile phase consisted of a 69.5:30.5 (v/v) mixture of 10 mM ammonium acetate buffer (pH 5.0) and acetonitrile, respectively, with a flow rate of 1.0 mL/min. Column effluent was monitored by a UV detector at 287 nm.
(§1) Pharmacokinetic parameters, including AUC, apparent volume of distribution at steady state (Vss), mean residence time (MRT), and time-averaged total body (CL), renal (CLR), and nonrenal (CLNR) clearances, were calculated by noncompartmental analysis (WinNonlin, Pharsight Corporation, Mountain View, CA, USA) using standard methods. AUC values were calculated using the trapezoidal rule–extrapolation method. The peak plasma concentration (Cmax) and time to reach Cmax (Tmax) were obtained directly from the experimental data. The mean values of clearance, terminal half-life, and Vss were calculated using the harmonic mean method.

[2] = humans, cited from earlier work
[3] = Hepatic first-pass effect: 30-min intravenous vs intraportal infusion in rats; format: in vivo, Sprague-Dawley rats; conditions: for AUC / CL renal / MRT / clearance / half-life / Vd: Sprague-Dawley, rat, plasma; for half-life: read-out: Terminal half-life; for Vd: read-out: Vss
Method: The carotid artery and jugular vein were handled as described previously. In addition, the vein from the cecum was cannulated and the cannula was pushed forward about 4 cm toward the liver through the portal vein to minimize the damage from blood flowing into the portal vein [13, 14]. […] Blood samples were collected from the carotid artery at times 0, 15, 30 (at the end of the infusion), 31, 35, 45, 60, 90, 150, 210, 270, 390, 510, and 630 min, with all sample collection and processing procedures identical to those described above.
as §1

[4] = Tissue distribution after intravenous administration in rats; format: in vivo; conditions: Sprague-Dawley, rat; every tissue except brain, mesentery and fat; 30 min and 2 h after iv 10 mg/kg; read-out: Tissue-to-plasma (T/P) ratio
Method: Rats were handled and processed as described previously [10]. […] After 30 min and 2 h (n = 4 each), as much blood as possible was collected from the carotid artery. Blood samples were immediately centrifuged, and plasma was collected. The rats were sacrificed by cervical dislocation, approximately 1 g of each brain, fat, heart, kidney, large intestine, liver, lung, mesentery, muscle, small intestine, spleen, and stomach was removed, rinsed with phosphate-buffered solution (pH 7.4), and blotted dry with paper towels to remove any remaining blood. Each tissue sample was added to four volumes of homogenizing buffer, homogenized using a tissue homogenizer (T25 Ultra-Turrax, IKA Labortechnik, Staufen, Germany) and centrifuged at 8000 × g for 10 min.

[5] = Biliary excretion after intravenous infusion in rats; format: in vivo, Sprague-Dawley rats; conditions: 1-min iv infusion 10 mg/kg, 0–24 h bile, n = 3
Method: The jugular vein of each rat was cannulated. The abdomen was opened and the bile duct was cannulated with polyethylene tubing. The incision was closed with surgical sutures and each rat was kept warm under an electric light. Each rat was maintained in the supine position during the entire experiment. […] Bile samples were collected over various time periods, from 0–1, 1–2, 2–4, 4–6, and 6–24 h.

[6] = 30-min intraportal infusion, 10 mg/kg (n = 7)
[7] = 30-min intravenous infusion, 10 mg/kg

- clearance ([1]; plasma, iv 50 mg/kg): 14.5 ± 2.33 mL/min/kg
- Ae0–24 h ([1]; all intravenous doses): less than 11.0%
- Slope of plot of AUC versus dose ([1]; intravenous, dose and AUC ratios based on 5 mg/kg): 2.74
- CLR slower at 50 mg/kg than at 5 mg/kg ([1]; iv): 69%
- CLR slower at 50 mg/kg than at 10 mg/kg ([1]; iv): 71%
- CLR slower at 50 mg/kg than at 20 mg/kg ([1]; iv): 71%
- Ae0–24 h (excreted unchanged in 24-h urine) ([1]; iv 5 mg/kg): 7.62 ± 5.08 % of dose
- CLNR ([1]; iv 5 mg/kg): 32.9 ± 7.72 mL/min/kg
- Dose-normalized AUC ([1]; iv 5 mg/kg): 282 µg·min/mL and 282 ± 46.0 µg·min/mL
- Ae0–24 h (excreted unchanged in 24-h urine) ([1]; iv 10 mg/kg): 9.40 ± 5.06 % of dose
- CLNR ([1]; iv 10 mg/kg): 26.3 ± 2.16 mL/min/kg
- Dose-normalized AUC ([1]; iv 10 mg/kg): 342 µg·min/mL and 342 ± 33.1 µg·min/mL
- Ae0–24 h (excreted unchanged in 24-h urine) ([1]; iv 20 mg/kg): 11.0 ± 3.72 % of dose
- CLNR ([1]; iv 20 mg/kg): 22.6 ± 3.90 mL/min/kg
- Dose-normalized AUC ([1]; iv 20 mg/kg): 404 µg·min/mL and 404 ± 73.0 µg·min/mL
- Ae0–24 h (excreted unchanged in 24-h urine) ([1]; iv 50 mg/kg): 5.55 ± 3.91 % of dose
- CLNR ([1]; iv 50 mg/kg): 13.7 ± 2.12 mL/min/kg
- Dose-normalized AUC ([1]; iv 50 mg/kg): 705 µg·min/mL and 705 ± 114 µg·min/mL
- CL renal ([1]; male, plasma, iv 5 mg/kg): 2.69 ± 1.7 mL/min/kg
- MRT ([1]; male, plasma, iv 5 mg/kg): 35.2 min
- clearance ([1]; male, plasma, iv 5 mg/kg): 36.3 ± 6.02 mL/min/kg
- half-life ([1]; male, plasma, iv 5 mg/kg): 38.2 ± 11.7 min
- Vd ([1]; male, plasma, iv 5 mg/kg): 1.26 ± 0.46 L/kg
- CL renal ([1]; male, plasma, iv 10 mg/kg): 2.8 ± 1.69 mL/min/kg
- MRT ([1]; male, plasma, iv 10 mg/kg): 41.1 min
- clearance ([1]; male, plasma, iv 10 mg/kg): 29.5 ± 2.99 mL/min/kg
- half-life ([1]; male, plasma, iv 10 mg/kg): 41.6 ± 7.86 min
- Vd ([1]; male, plasma, iv 10 mg/kg): 1.21 ± 0.579 L/kg
- CL renal ([1]; male, plasma, iv 20 mg/kg): 2.8 ± 1.17 mL/min/kg
- MRT ([1]; male, plasma, iv 20 mg/kg): 35.5 min
- clearance ([1]; male, plasma, iv 20 mg/kg): 25.4 ± 4.26 mL/min/kg
- half-life ([1]; male, plasma, iv 20 mg/kg): 48.1 ± 5.56 min
- Vd ([1]; male, plasma, iv 20 mg/kg): 0.9 ± 0.218 L/kg
- CL renal ([1]; male, plasma, iv 50 mg/kg): 0.824 ± 0.651 mL/min/kg
- MRT ([1]; male, plasma, iv 50 mg/kg): 105 min
- half-life ([1]; male, plasma, iv 50 mg/kg): 97.8 ± 19.2 min
- Vd ([1]; male, plasma, iv 50 mg/kg): 1.49 ± 0.134 L/kg
- clearance ([1]; male, range over intravenous doses, based on plasma data): 14.5 to 36.3 mL/min/kg
- AUC ([1]; plasma, 5 mg/kg): 2350 ng·h/mL
- AUC ([1]; plasma, 10 mg/kg): 5700 ng·h/mL
- AUC ([1]; plasma, 20 mg/kg): 13500 ng·h/mL
- AUC ([1]; plasma, 50 mg/kg): 58800 ng·h/mL
- AUC after intraportal administration as % of that after intravenous administration ([3]; 10 mg/kg): 58.0%
- CL faster after intraportal than intravenous administration ([3]; 10 mg/kg): 67%
- CLNR faster after intraportal than intravenous administration ([3]; 10 mg/kg): 60%
- Vss higher after intraportal than intravenous administration ([3]; 10 mg/kg): 50%
- Ae0–24 h [3, 6]: 10.7 ± 9.42 % of dose
- CLNR [3, 6]: 38.5 ± 10.4 mL/min/kg
- Ae0–24 h [3, 7]: 12.5 ± 5.20 % of dose
- CLNR [3, 7]: 24.0 ± 6.46 mL/min/kg
- AUC [3, 6]: 4030 ng·h/mL
- CL renal [3, 6]: 5 ± 4.69 mL/min/kg
- MRT [3, 6]: 59.6 min
- clearance [3, 6]: 43.8 ± 11 mL/min/kg
- half-life [3, 6]: 42.4 ± 10.4 min
- Vd [3, 6]: 2.55 ± 0.72 L/kg
- AUC [3, 7]: 6950 ng·h/mL
- CL renal [3, 7]: 2.34 ± 2.9 mL/min/kg
- MRT [3, 7]: 67.5 min
- clearance [3, 7]: 26.3 ± 8.85 mL/min/kg
- half-life [3, 7]: 46.2 ± 12.5 min
- Vd [3, 7]: 1.7 ± 0.737 L/kg
- Kp [4]: > 1
- Excreted in bile [5]: 0.703 ± 0.303 % of the intravenous dose
SMILES: C[C@@H]1CCN(C(=O)CC#N)C[C@@H]1N(C)c1ncnc2[nH]ccc12 [tofacitinib, 3-[(3R,4R)-4-methyl-3-[methyl-(7H-pyrrolo[2,3-day]pyrimidin-4-l)amino]piperidin-1-yl]-3-oxopropanenitril]
- Terminal half-life [2]: 192 min
- Volume of distribution [2]: 87 L
- Bound to plasma proteins ([2]; oral): 40%
